# Literature values in patent US20080057086A1, “COLON-TARGETED ORAL FORMULATIONS OF CYTIDINE ANALOGS” (PHARMION CORPORATION, priority 2006, published 2008).
# Tested on: total hemoglobin, fetal hemoglobin and F cells
# Details: sickle cell patients; oral THU 200 mg/d alone; cited from earlier work
structure (smiles),measurement,value
"O=C1NC(O)CCN1[C@@H]1O[C@H](CO)[C@@H](O)[C@H]1O (stereo partly shown) [THU, tetrahydrouridine]",F reticulocyte production,did not result in increased F reticulocyte production
